Assay results reported in US9102637B2, “Bicyclic thiazole compounds” (CARNA BIOSCIENCES INC., priority 2013, dated 2015).

Assays:
[1] = biological target: human TNIK (N-terminal segment, TNIK_N, residues 1-314) (Homo sapiens (Human), UniProt Q9UKE5); experiment: TNIK kinase assay (mobility shift); assay type: biochemical; conditions: TNIK_N kinase activity, 25 μM ATP, 1 h at room temperature
Summary of the method: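 GST-tagged human TNIK residues 1-314 (Sf21 baculovirus) at 0.08 ng/μl phosphorylated 1 μM FITC-peptide with 25 μM ATP. Buffer: 20 mM Hepes pH 7.5, 5 mM MgCl2, 2 mM DTT, 1% DMSO; 1 h at room temperature, stopped with EDTA. Mobility-shift detection; activity = P/(P+S).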

[2] = system: human colon cancer cell line HCT-116; experiment: In vitro cell proliferation assay; assay type: cell-based; conditions: HCT-116 cell number, 72 hours of treatment
Method: In Vitro Cell Proliferation Assay
The human colon cancer cell line HCT-116 was seeded at 600 cells/well in 96 well-plate (ThermoFisher) using RPMI medium containing 2 mM L-glutamine (Invitrogen) supplemented with 10% FCS (Invitrogen) and 1% penicillin/streptomycin (Sigma) and maintained at 37° C., 5% CO2 and 100% humidity. The following day, old medium was withdrawn and the fresh medium was added. Initial numbers of cells were counted before adding compounds. Then cells were treated in duplicates with compounds (a half-logarithmic serial dilution from 10 μM). Eight untreated control wells were incubated in each plate. After 72 hours of treatment, cells were fixed with 2% paraformaldehyde, and the nucleus were stained with Hoechst 33258 (Invitrogen). The numbers of cells were counted with ArrayScan™ VTI (ThermoFisher Scientific).

human TNIK (N-terminal segment, TNIK_N, residues 1-314), sequence (Q9UKE5 1-314): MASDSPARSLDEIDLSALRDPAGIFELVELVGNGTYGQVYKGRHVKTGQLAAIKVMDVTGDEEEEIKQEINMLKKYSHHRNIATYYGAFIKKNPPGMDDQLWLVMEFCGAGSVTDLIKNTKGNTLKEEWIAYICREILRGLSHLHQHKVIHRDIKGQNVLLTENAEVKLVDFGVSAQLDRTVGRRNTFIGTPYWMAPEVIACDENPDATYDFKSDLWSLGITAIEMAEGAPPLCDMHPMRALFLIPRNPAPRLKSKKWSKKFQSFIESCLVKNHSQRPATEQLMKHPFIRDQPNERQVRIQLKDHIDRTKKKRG

| IC50 [1] [nM] | IC50 [2] [nM] | Structure (SMILES) |
| --- | --- | --- |
| 36.3 | 1000 to 10000 | CN1CCN(c2ccc(C(=O)Nc3sc(N(C)c4ccc5ccccc5c4)nc3C(N)=O)cc2)CC1 [Example 65, 2-[methyl(naphthalen-2-yl)amino]-5-[4-(4-methyl-piperazin-1-yl)benzamido]thiazole-4-carboxamide] |
| 4.1 | 1000 to 10000 | CN1CCN(c2ccc(C(=O)Nc3sc(Nc4ccc5ncccc5c4)nc3C(N)=O)cc2)CC1 [Example 24, 5-[4-(4-methylpiperazin-1-yl)benzamido]-2-(quinolin-6-ylamino)thiazole-4-carboxamide] |
| 12 | 100 to 1000 | NC(=O)c1nc(Nc2ccc3cnccc3c2)sc1NC(=O)c1ccsc1 [Example 46, 2-(isoquinolin-6-ylamino)-5-(thiophene-3-carbox-amido)thiazole-4-carboxamide] |
| 22.7 | 100 to 1000 | NC(=O)c1nc(Nc2ccc3ccccc3c2)sc1NC(=O)c1cc2sccc2[nH]1 [Example 35, N-[4-carbamoyl-2-(naphthalen-2-ylamino)thiazol-5-yl]-4H-thieno[3,2-b]pyrrole-5-carboxamide] |
| 17 | 100 to 1000 | CN1CCN(c2ccc(C(=O)Nc3sc(N(C)c4ccc5ncccc5c4)nc3C(N)=O)cc2)CC1 [Example 28, 2-[methyl(quinolin-6-yl)amino]-5-[4-(4-methylpiperazin-1-yl]benzamido)thiazole-4-carboxamide] |
| 5.9 | < 100 | NC(=O)c1nc(Nc2ccc3ccccc3c2)sc1NC(=O)c1ccc(Cn2cnnn2)cc1 [Example 205, 5-(4-[(1H-tetrazol-1-yl)methyl)benzamido]-2-(naphthalen-2-ylamino)thiazole-4-carboxamide] |
| 2.5 | < 100 | NC(=O)c1nc(Nc2ccc3ccccc3c2)sc1NC(=O)c1ccc(Cn2cncn2)cc1 [Example 195, 5-{4-[(1H-1,2,4-triazol-1-yl)methyl]benzamido}-2-(naphthalen-2-ylamino)thiazole-4-carboxamide] |
| 3 | < 100 | NC(=O)c1nc(Nc2ccc3ccccc3c2)sc1NC(=O)c1ccc(Cn2ccnc2)cc1 [Example 208, 5-{4-[(1H-imidazol-1-yl)methyl]benzamido}-2-(naphthalen-2-ylamino)thiazole-4-carboxamide] |
| 12.7 | 1000 to 10000 | CC(C)=CC(=O)Nc1sc(Nc2ccc3ccccc3c2)nc1C(N)=O [Example 83, 5-(3-methylbut-2-enamido)-2-(naphthalen-2-yl-amino)thiazole-4-carboxamide] |
| 15.6 | 1000 to 10000 | CN1CCN(c2ccc(C(=O)Nc3sc(Nc4cccc5ncccc45)nc3C(N)=O)cc2)CC1 [Example 26, 5-[4-(4-methylpiperazin-1-yl)benzamido]-2-(quinolin-5-ylamino)thiazole-4-carboxamide] |
| 12.7 | < 100 | NC(=O)c1nc(Nc2ccc3ccccc3c2)sc1NC(=O)c1ccc(N2CCC(O)CC2)cc1 [Example 97, 5-[4-(4-hydroxypiperidin-1-yl)benzamido]-2-(naphthalen-2-ylamino)thiazole-4-carboxamide] |
| 19.1 | 1000 to 10000 | CN1CCN(c2ccc(C(=O)Nc3sc(Nc4cccc5cccnc45)nc3C(N)=O)cc2)CC1 [Example 27, 5-[4-(4-methylpiperazin-1-yl)benzamido]-2-(quinolin-8-ylamino)thiazole-4-carboxamide] |
| – | 1000 to 10000 | COc1ccc2cc(Nc3nc(C(N)=O)c(NC(=O)c4ccsc4)s3)ccc2c1 [Example 73, 2-[(6-methoxynaphthalen-2-yl)amino]-5-(thio-phene-3-carboxamido)thiazole-4-carboxamide] |

Second part, the compound before the results:

| Structure (SMILES) | IC50 [1] [nM] | IC50 [2] [nM] |
| --- | --- | --- |
| NC(=O)c1nc(Nc2ccc3ccccc3c2)sc1NC(=O)c1ccc(NCCN2CCCCC2)cc1 [Example 13, 2-(naphthalen-2-ylamino)-5-{4-[2-(piperidin-1-yl)ethylamino]benzamido}thiazole-4-carboxamide] | 8 | < 100 |
| NCc1ccc(C(=O)Nc2sc(Nc3ccc4ccccc4c3)nc2C(N)=O)cc1 [Example 23, 5-(4-aminomethylbenzamido)-2-(naphthalen-2-yl-amino)thiazole-4-carboxamide] | 5.3 | 100 to 1000 |
| NC(=O)c1nc(Nc2ccc3ccccc3c2)sc1NC(=O)c1ccc(N)cc1 [Example 16, 5-(4-aminobenzamido)-2-(naphthalen-2-ylamino) thiazole-4-carboxamide] | 20.3 | < 100 |
| NC(=O)c1nc(Nc2ccc3ccccc3c2)sc1NC(=O)c1ccc(NCCO)cc1 [Example 10, 5-[4-(2-hydroxyethylamino)benzamido]-2-(naphthalen-2-ylamino)thiazole-4-carboxamide] | 10.6 | < 100 |
| CC(=O)Nc1ccc(C(=O)Nc2sc(Nc3ccc4ccccc4c3)nc2C(N)=O)cc1 [Example 2, 5-(4-acetamidobenzamido)-2-(naphthalen-2-ylamino)thiazole-4-carboxamide] | 19.8 | < 100 |
| CN1CCN(c2ccc(C(=O)Nc3sc(Nc4ccc5ccccc5c4)nc3C(N)=O)cc2)CC1 [Example 12, 5-[4-(4-methylpiperazin-1-yl)benzamido]-2-(naphthalen-2-ylamino)thiazole-4-carboxamide] | 10.2 | 100 to 1000 |
| CN(C)CCNc1ccc(C(=O)Nc2sc(Nc3ccc4ccccc4c3)nc2C(N)=O)cc1 [Example 11, 5-{4-[2-(dimethylamino)ethylamino]benzamido}-2-(naphthalen-2-ylamino)thiazole-4-carboxamide] | 8.6 | < 100 |
| CN1CCN(Cc2ccc(C(=O)Nc3sc(Nc4ccc5ccccc5c4)nc3C(N)=O)cc2)CC1 [Example 17, 5-{4-[(4-methylpiperazin-1-yl)methyl]benzamido}-2-(naphthalen-2-ylamino)thiazole-4-carboxamide] | 5.1 | < 100 |
| NC(=O)c1nc(Nc2ccc3ccccc3c2)sc1NC(=O)c1ccc(CN2CCOCC2)cc1 [Example 18, 5-[4-(morpholinomethyl)benzamido]-2-(naphthalen-2-ylamino)thiazole-4-carboxamide] | 8.6 | < 100 |
